Data as given in PubChem BioAssay (NCI).
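Here, GI50 denotes the concentration required for 50% inhibition of growth. The concentration for full growth arrest is given as TGI.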

Legend:
Experiment in all cases: growth of human tumour cells (NCI), 384-well format
CAKI-1 renal = tested on: CAKI-1 renal
K-562 leukemia = tested on: K-562 leukemia
HL-60(TB) leukemia = tested on: HL-60(TB) leukemia
BT-549 breast = tested on: BT-549 breast
A498 renal = tested on: A498 renal
U251 glioblastoma = tested on: U251 glioblastoma
HCT-15 colon = tested on: HCT-15 colon
UACC-257 melanoma = tested on: UACC-257 melanoma
MOLT-4 leukemia = tested on: MOLT-4 leukemia
PC-3 prostate = tested on: PC-3 prostate
SK-OV-3 ovarian = tested on: SK-OV-3 ovarian
SK-MEL-2 melanoma = tested on: SK-MEL-2 melanoma
KM12 colon = tested on: KM12 colon
M14 melanoma = tested on: M14 melanoma
RXF 393 renal = tested on: RXF 393 renal
DU-145 prostate = tested on: DU-145 prostate
MDA-MB-231 breast = tested on: MDA-MB-231 breast
NCI-H23 lung = tested on: NCI-H23 lung
UACC-62 melanoma = tested on: UACC-62 melanoma
HCT-116 colon = tested on: HCT-116 colon
MCF7 breast = tested on: MCF7 breast
SNB-75 CNS = tested on: SNB-75 CNS
RPMI-8226 leukemia = tested on: RPMI-8226 leukemia
SW-620 colon = tested on: SW-620 colon
MDA-MB-468 breast = tested on: MDA-MB-468 breast
TK-10 renal = tested on: TK-10 renal
NCI-H226 lung = tested on: NCI-H226 lung
SF-295 CNS = tested on: SF-295 CNS
MALME-3M melanoma = tested on: MALME-3M melanoma
NCI-H522 lung = tested on: NCI-H522 lung
HCC-2998 colon = tested on: HCC-2998 colon
COLO 205 colon = tested on: COLO 205 colon
SK-MEL-5 melanoma = tested on: SK-MEL-5 melanoma
HT29 colon = tested on: HT29 colon
MDA-MB-435 melanoma = tested on: MDA-MB-435 melanoma
OVCAR-3 ovarian = tested on: OVCAR-3 ovarian
NCI-H460 NSCLC = tested on: NCI-H460 NSCLC
IGROV1 ovarian = tested on: IGROV1 ovarian
SR leukemia = tested on: SR leukemia
CCRF-CEM leukemia = tested on: CCRF-CEM leukemia
T-47D breast = tested on: T-47D breast
HOP-62 NSCLC = tested on: HOP-62 NSCLC
SK-MEL-28 melanoma = tested on: SK-MEL-28 melanoma
SF-539 CNS = tested on: SF-539 CNS
OVCAR-5 ovarian = tested on: OVCAR-5 ovarian
UO-31 renal = tested on: UO-31 renal
OVCAR-8 ovarian = tested on: OVCAR-8 ovarian

With CC(=O)OC[C@H]1O[C@@H](n2ccc(=O)[nH]c2=O)[C@H](OC(C)=O)[C@@H]1OC(C)=O the GI50 (CAKI-1 renal) was greater than 100 µM, the TGI (CAKI-1 renal) was greater than 100 µM and the GI50 (K-562 leukemia) was greater than 100 µM. The TGI (K-562 leukemia) was greater than 100 µM, the GI50 (HL-60(TB) leukemia) was greater than 100 µM and the TGI (HL-60(TB) leukemia) was greater than 100 µM. For the same molecule, the GI50 (BT-549 breast) was greater than 100 µM, the TGI (BT-549 breast) was greater than 100 µM and the GI50 (A498 renal) was greater than 100 µM. It also gave a TGI (A498 renal) greater than 100 µM, a GI50 (U251 glioblastoma) greater than 100 µM and a TGI (U251 glioblastoma) greater than 100 µM. For the same molecule, the GI50 (HCT-15 colon) was greater than 100 µM, the TGI (HCT-15 colon) was greater than 100 µM and the GI50 (UACC-257 melanoma) was greater than 100 µM. For the same molecule, the TGI (UACC-257 melanoma) was greater than 100 µM, the GI50 (MOLT-4 leukemia) was greater than 100 µM and the TGI (MOLT-4 leukemia) was greater than 100 µM. The GI50 (PC-3 prostate) was greater than 100 µM, the TGI (PC-3 prostate) was greater than 100 µM and the GI50 (SK-OV-3 ovarian) was greater than 100 µM. It also gave a TGI (SK-OV-3 ovarian) greater than 100 µM, a GI50 (SK-MEL-2 melanoma) greater than 100 µM and a TGI (SK-MEL-2 melanoma) greater than 100 µM. It also gave a GI50 (KM12 colon) greater than 100 µM, a TGI (KM12 colon) greater than 100 µM and a GI50 (M14 melanoma) greater than 100 µM. It also gave a TGI (M14 melanoma) greater than 100 µM, a GI50 (RXF 393 renal) greater than 100 µM and a TGI (RXF 393 renal) greater than 100 µM. For the same molecule, the GI50 (DU-145 prostate) was greater than 100 µM, the TGI (DU-145 prostate) was greater than 100 µM and the GI50 (MDA-MB-231 breast) was greater than 100 µM. The TGI (MDA-MB-231 breast) was greater than 100 µM, the GI50 (NCI-H23 lung) was greater than 100 µM and the TGI (NCI-H23 lung) was greater than 100 µM. The GI50 (UACC-62 melanoma) was greater than 100 µM, the TGI (UACC-62 melanoma) was greater than 100 µM and the GI50 (HCT-116 colon) was greater than 100 µM. For the same molecule, the TGI (HCT-116 colon) was greater than 100 µM, the GI50 (MCF7 breast) was greater than 100 µM and the TGI (MCF7 breast) was greater than 100 µM. It also gave a GI50 (SNB-75 CNS) greater than 100 µM, a TGI (SNB-75 CNS) greater than 100 µM and a GI50 (RPMI-8226 leukemia) greater than 100 µM. The TGI (RPMI-8226 leukemia) was greater than 100 µM, the GI50 (SW-620 colon) was greater than 100 µM and the TGI (SW-620 colon) was greater than 100 µM. The GI50 (MDA-MB-468 breast) was greater than 100 µM, the TGI (MDA-MB-468 breast) was greater than 100 µM and the GI50 (TK-10 renal) was greater than 100 µM. For the same molecule, the TGI (TK-10 renal) was greater than 100 µM, the GI50 (NCI-H226 lung) was greater than 100 µM and the TGI (NCI-H226 lung) was greater than 100 µM. It also gave a GI50 (SF-295 CNS) greater than 100 µM, a TGI (SF-295 CNS) greater than 100 µM and a GI50 (MALME-3M melanoma) greater than 100 µM. The TGI (MALME-3M melanoma) was greater than 100 µM, the GI50 (NCI-H522 lung) was greater than 100 µM and the TGI (NCI-H522 lung) was greater than 100 µM. It also gave a GI50 (HCC-2998 colon) greater than 100 µM, a TGI (HCC-2998 colon) greater than 100 µM and a GI50 (COLO 205 colon) greater than 100 µM. It also gave a TGI (COLO 205 colon) greater than 100 µM, a GI50 (SK-MEL-5 melanoma) greater than 100 µM and a TGI (SK-MEL-5 melanoma) greater than 100 µM. For the same molecule, the GI50 (HT29 colon) was greater than 100 µM, the TGI (HT29 colon) was greater than 100 µM and the GI50 (MDA-MB-435 melanoma) was greater than 100 µM. It also gave a TGI (MDA-MB-435 melanoma) greater than 100 µM, a GI50 (OVCAR-3 ovarian) greater than 100 µM and a TGI (OVCAR-3 ovarian) greater than 100 µM. For the same molecule, the GI50 (NCI-H460 NSCLC) was greater than 100 µM, the TGI (NCI-H460 NSCLC) was greater than 100 µM and the GI50 (IGROV1 ovarian) was greater than 100 µM. The TGI (IGROV1 ovarian) was greater than 100 µM, the GI50 (SR leukemia) was greater than 100 µM and the TGI (SR leukemia) was greater than 100 µM. For the same molecule, the GI50 (CCRF-CEM leukemia) was greater than 100 µM, the TGI (CCRF-CEM leukemia) was greater than 100 µM and the GI50 (T-47D breast) was greater than 100 µM. For the same molecule, the TGI (T-47D breast) was greater than 100 µM, the GI50 (HOP-62 NSCLC) was greater than 100 µM and the TGI (HOP-62 NSCLC) was greater than 100 µM. The GI50 (SK-MEL-28 melanoma) was greater than 100 µM, the TGI (SK-MEL-28 melanoma) was greater than 100 µM and the GI50 (SF-539 CNS) was greater than 100 µM. The TGI (SF-539 CNS) was greater than 100 µM, the GI50 (OVCAR-5 ovarian) was greater than 100 µM and the TGI (OVCAR-5 ovarian) was greater than 100 µM. For the same molecule, the GI50 (UO-31 renal) was greater than 100 µM, the TGI (UO-31 renal) was greater than 100 µM and the GI50 (OVCAR-8 ovarian) was greater than 100 µM. It also gave a TGI (OVCAR-8 ovarian) greater than 100 µM.
